Laboratory results from ChEMBL document CHEMBL1155583, “Steroidal saponins from Dracaena surculosa” (J Nat Prod, 2000).
Values after ≈ are worked out from the molar mass of the structure shown.

system: HL-60; experiment: Cytotoxicity against human HL60 cells by MTT assay; type: functional, cell-based

How did the IC50 turn out when `C[C@@H]1CC[C@@]2(OC1)O[C@H]1C[C@H]3[C@@H]4CC=C5C[C@@H](O[C@@H]6O[C@H](CO)[C@@H](O[C@@H]7O[C@@H](C)[C@H](O)[C@@H](O)[C@H]7O)[C@H](O)[C@H]6O[C@@H]6O[C@@H](C)[C@H](O)[C@@H](O)[C@H]6O)CC[C@]5(C)[C@H]4CC[C@]3(C)[C@@]1(O)[C@@H]2C` was run?
Its IC50 is 4.2 µg/mL (≈ 4.75 µM).

`C[C@@H]1CC[C@@]2(OC1)O[C@H]1C[C@H]3[C@@H]4CC=C5C[C@@H](O[C@@H]6O[C@H](CO)[C@@H](O)[C@H](O)[C@H]6O[C@@H]6O[C@@H](C)[C@H](O)[C@@H](O)[C@H]6O)CC[C@]5(C)[C@H]4CC[C@]3(C)[C@@]1(O)[C@@H]2C` was tested. Which IC50 did it give?
The IC50 was 5.2 µg/mL (≈ 7.04 µM).

`C[C@H]1CC[C@@]2(OC1)O[C@H]1C[C@H]3[C@@H]4CC=C5C[C@@H](O)C[C@@H](O[C@@H]6O[C@H](C)[C@H](O)[C@H](O)[C@H]6O[C@@H]6O[C@@H](C)[C@H](O)[C@@H](O)[C@H]6O)[C@]5(C)[C@H]4CC[C@]3(C)[C@H]1[C@@H]2C` was tested. Which IC50 did it give?
The IC50 was 8.7 µg/mL (≈ 12 µM).
